Source: ChEMBL document CHEMBL3774347, “Docking and Linking of Fragments To Discover Jumonji Histone Demethylase Inhibitors” (J Med Chem, 2016)

What was measured:
[1] = target: T1, Lysine-specific demethylase 4C (Homo sapiens, UniProt Q9H3R0); assay: Competitive inhibition of N-terminal His6-tagged KDM4C (1 to 352 residues) (unknown origin) expressed in Escherichia coli Rosetta 2(DE3)pLysS using 50 uM ARK(Me3)STGGK peptide/50 uM alpha-ketoglutarate as substrate/cofactor by FDH coupling-based Lineweaver-Burk plot analysis
T1 sequence (Q9H3R0 whole entry): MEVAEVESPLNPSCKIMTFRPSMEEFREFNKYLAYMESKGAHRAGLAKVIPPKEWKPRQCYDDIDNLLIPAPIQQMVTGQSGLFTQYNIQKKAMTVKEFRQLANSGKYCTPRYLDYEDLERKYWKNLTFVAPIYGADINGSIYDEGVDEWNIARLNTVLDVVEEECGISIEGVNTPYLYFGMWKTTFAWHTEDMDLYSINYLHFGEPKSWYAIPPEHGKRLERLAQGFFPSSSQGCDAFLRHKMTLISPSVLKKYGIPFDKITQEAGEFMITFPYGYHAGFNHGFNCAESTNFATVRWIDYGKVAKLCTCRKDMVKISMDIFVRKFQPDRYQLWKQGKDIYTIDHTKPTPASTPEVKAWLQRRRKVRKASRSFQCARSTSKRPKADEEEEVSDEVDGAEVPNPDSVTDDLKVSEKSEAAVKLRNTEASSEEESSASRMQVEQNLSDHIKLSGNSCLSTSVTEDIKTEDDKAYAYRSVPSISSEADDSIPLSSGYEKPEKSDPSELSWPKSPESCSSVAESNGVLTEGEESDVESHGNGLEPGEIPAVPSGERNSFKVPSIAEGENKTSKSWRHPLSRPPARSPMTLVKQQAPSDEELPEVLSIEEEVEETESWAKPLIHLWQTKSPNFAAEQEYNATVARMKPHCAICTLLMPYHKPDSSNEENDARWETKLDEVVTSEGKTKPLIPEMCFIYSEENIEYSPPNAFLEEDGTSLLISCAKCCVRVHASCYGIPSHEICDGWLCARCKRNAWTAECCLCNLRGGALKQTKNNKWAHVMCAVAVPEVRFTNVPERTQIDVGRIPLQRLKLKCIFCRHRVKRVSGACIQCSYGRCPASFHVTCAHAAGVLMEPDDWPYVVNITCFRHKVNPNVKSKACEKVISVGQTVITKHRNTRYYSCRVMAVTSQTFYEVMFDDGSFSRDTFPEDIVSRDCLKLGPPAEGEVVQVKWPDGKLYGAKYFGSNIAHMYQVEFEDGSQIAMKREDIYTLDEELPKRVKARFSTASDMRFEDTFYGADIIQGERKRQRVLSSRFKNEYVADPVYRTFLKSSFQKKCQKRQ

[2] = target: T1, Lysine-specific demethylase 4C; assay: Competitive inhibition of N-terminal His6-tagged KDM4C (1 to 352 residues) (unknown origin) expressed in Escherichia coli Rosetta 2(DE3)pLysS using 250 uM ARK(Me3)STGGK peptide/50 uM alpha-ketoglutarate as substrate/cofactor by FDH coupling-based Lineweaver-Burk plot analysis
[3] = target: T1, Lysine-specific demethylase 4C; assay: Competitive inhibition of N-terminal His6-tagged KDM4C (1 to 352 residues) (unknown origin) expressed in Escherichia coli Rosetta 2(DE3)pLysS using 50 uM ARK(Me3)STGGK peptide/5 uM alpha-ketoglutarate as substrate/cofactor by FDH coupling-based Lineweaver-Burk plot analysis
[4] = target: T2, Lysine-specific demethylase 3A (Homo sapiens, UniProt Q9Y4C1); assay: Inhibition of KDM3A (unknown origin) expressed in Escherichia coli using H3 (1 to 21 residues) K9Me2-GGK-Biotin KDM3A Cognate Ligand/10 uM alpha-ketoglutarate as substrate/cofactor preincubated for 5 mins followed by substrate addition measured after 20 mins by alphascreen assay
T2 sequence (Q9Y4C1 whole entry): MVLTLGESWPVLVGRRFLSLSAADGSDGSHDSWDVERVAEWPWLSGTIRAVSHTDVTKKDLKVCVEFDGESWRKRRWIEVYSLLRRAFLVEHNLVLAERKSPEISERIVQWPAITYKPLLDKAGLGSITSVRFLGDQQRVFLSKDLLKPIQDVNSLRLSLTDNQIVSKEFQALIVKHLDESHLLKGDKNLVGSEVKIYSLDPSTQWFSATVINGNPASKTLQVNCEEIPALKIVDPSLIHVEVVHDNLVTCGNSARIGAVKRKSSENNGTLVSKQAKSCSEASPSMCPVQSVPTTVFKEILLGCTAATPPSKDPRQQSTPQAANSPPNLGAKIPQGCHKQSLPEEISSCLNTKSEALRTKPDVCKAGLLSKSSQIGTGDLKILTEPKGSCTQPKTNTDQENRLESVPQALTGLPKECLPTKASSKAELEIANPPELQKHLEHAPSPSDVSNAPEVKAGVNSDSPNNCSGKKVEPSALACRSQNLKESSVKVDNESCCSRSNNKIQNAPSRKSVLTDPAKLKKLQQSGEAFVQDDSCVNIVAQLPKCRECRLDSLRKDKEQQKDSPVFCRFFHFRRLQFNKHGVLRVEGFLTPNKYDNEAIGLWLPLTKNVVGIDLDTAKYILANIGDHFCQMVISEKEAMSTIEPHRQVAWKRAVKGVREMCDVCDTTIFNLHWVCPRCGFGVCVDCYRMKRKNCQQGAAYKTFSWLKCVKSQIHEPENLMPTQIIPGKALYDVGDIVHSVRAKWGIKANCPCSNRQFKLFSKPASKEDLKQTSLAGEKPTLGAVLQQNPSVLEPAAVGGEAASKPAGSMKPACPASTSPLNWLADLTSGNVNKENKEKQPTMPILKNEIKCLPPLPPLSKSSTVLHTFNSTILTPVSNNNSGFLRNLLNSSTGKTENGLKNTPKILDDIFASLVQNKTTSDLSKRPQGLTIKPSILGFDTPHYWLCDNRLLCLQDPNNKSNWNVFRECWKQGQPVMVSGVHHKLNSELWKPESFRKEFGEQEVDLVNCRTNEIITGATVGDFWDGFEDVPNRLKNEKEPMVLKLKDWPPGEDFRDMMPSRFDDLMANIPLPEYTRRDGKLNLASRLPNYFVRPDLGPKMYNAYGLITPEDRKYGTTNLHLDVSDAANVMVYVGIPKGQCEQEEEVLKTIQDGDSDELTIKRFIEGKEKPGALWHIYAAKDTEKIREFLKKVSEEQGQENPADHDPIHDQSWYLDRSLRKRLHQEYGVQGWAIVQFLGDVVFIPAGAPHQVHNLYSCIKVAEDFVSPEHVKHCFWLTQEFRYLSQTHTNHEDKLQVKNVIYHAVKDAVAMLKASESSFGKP

[5] = target: T1, Lysine-specific demethylase 4C

Row | SMILES | IC50 [1] | IC50 [2] | IC50 [3] | IC50 [4] | Ki [5]
1 | O=C(O)c1ccnc(-c2cc(NC(=O)c3ccc(O)cc3)ccc2O)c1 | 4.8 µM | 5.5 µM | 1.1 µM | 2.3 µM | 0.0432 µM
2 | CC(=O)Nc1ccc(O)c(-c2cc(C(=O)O)ccn2)c1 | – | – | – | 33 µM | –
3 | Cc1cc(C(=O)Nc2ccc(O)c(-c3cc(C(=O)O)ccn3)c2)no1 | – | – | – | 5.7 µM | –
4 | COc1cccc(CC(=O)Nc2ccc(O)c(-c3cc(C(=O)O)ccn3)c2)c1 | – | – | – | 9 µM | –
5 | COCC(=O)Nc1ccc(O)c(-c2cc(C(=O)O)ccn2)c1 | 14.2 µM | 14.9 µM | 3.3 µM | 11 µM | 0.683 µM
